{"source": "patent US8492334B2", "about": "“Sustained intraocular delivery of drugs from biodegradable polymeric microparticles” (Yale University, priority 2007, dated 2013)", "molecules": {"B1": {"name": "BDNF: brain-derived neurotrophic factor, a protein neurotrophic factor (protein, UniProt P23560 19-247, looked up)", "Neurotrophic factor BDNF …": "APMKEANIRGQGGLAYPGVRTHGTLESVNGPKAGSRGLTSLADTFEHVIEELLDEDQKVRPNEENNKDADLYTSRVMLSSQVPLEPPLLFLLEEYKNYLDAANMSMRVRRHSDPARRGELSVCDSISEWVTAADKKTAVDMSGGTVTVLEKVPVSKGQLKQYFYETKCNPMGYTKEGCRGIDKRHWNSQCRTTQSYVRALTMDSKKRIGWRFIRIDTSCVCTLTIKRGR"}, "B2": {"name": "NT-3: neurotrophic factor in the NGF family of neurotrophins (protein, UniProt P20783 139-257, looked up)", "Neurotrophin-3": "YAEHKSHRGEYSVCDSESLWVTDKSSAIDIRGHQVTVLGEIKTGNSPVKQYFYETRCKEARPVKNGCRGIDDKHWNSQCKTSQTYVRALTSENNKLVGWRWIRIDTSCVCALSRKIGRT"}, "B3": {"name": "NT-4: neurotrophic factor in the NGF family of neurotrophins (protein, UniProt P34130 81-210, looked up)", "Neurotrophin-4": "GVSETAPASRRGELAVCDAVSGWVTDRRTAVDLRGREVEVLGEVPAAGGSPLRQYFFETRCKADNAEEGGPGAGGGGCRGVDRRHWVSECKAKQSYVRALTADAQGRVGWRWIRIDTACVCTLLSRTGRA"}}, "key": {"[1]": {"settings": "administered topically as a solution; cited from earlier work"}, "[2]": {"settings": "eye drops, cited from earlier work"}, "[3]": {"experiment": "Release of timolol maleate in vitro from microspheres", "assay_type": "physicochemical", "settings": "20% w/w timolol maleate to PLGA; AOT 147 mM in first emulsion step, or Span 20 in its place", "procedure": "In 1.5 ml eppendorf tubes, 10 mg of timolol containing or blank microparticles were reconstituted with 1 ml of phosphate buffered saline (PBS). Samples were prepared in triplicate. The samples were incubated at 37° C. on a labquake rotating shaker (Barnstead/Thermolyne; Dubuque, Iowa, USA). At specific time points (1, 3, 5, and 8 hours; 1, 2, 3, 5, and 7 days; and once every 7 days thereafter until no pellets remained), the samples were centrifuged and the supernatant collected. 1 ml of PBS was added to the replace the withdrawn supernatant and the microparticles were resuspended and returned to the shaker. Supernatants for each of the sets of microspheres was frozen and stored at −80° C. for subsequent analysis using UV spectroscopy at 293 nm.\nThe drug loading was 20% weight of timolol maleate to weight of polymer. The particles were stored in deionized water at 37° C. Following centrifugation at predetermined time points, the supernatant was extracted and timolol maleate content measured. FIG. 3 depicts the same values expressed as a percentage of the loading values in FIG. 1."}, "[4]": {"system": "adult rat retinal ganglion cells", "settings": "cited from earlier work; for delay of onset of axotomy-induced RGC death: intraocular administration at the time of axotomy; for effect on survival of RGCs after axotomy: intraocular administration"}}, "note": "Counter-ions that a name gives are not always drawn. Like-named read-outs stand apart in the source and are kept apart here.", "data": [{"molecule": "CC(C)(C)NC[C@H](O)COc1nsnc1N1CCOCC1", "note": "[Timolol maleate]", "values": [{"measurement": "average IOP reduction", "setting": "[1]", "result": "20-35%"}, {"measurement": "systemic absorption of the administered drug", "setting": "[2]", "result": "approximately 80%"}, {"measurement": "topically administered drug reaching the aqueous humor", "setting": "[2]", "result": "less than 1%"}, {"measurement": "systemic absorption of the administered drug", "setting": "[2]; listed as timolol maleate", "result": "~80", "unit": "%"}]}, {"molecule": "Span 20", "values": [{"measurement": "effect of added surfactant on loading or release of timolol maleate", "setting": "[3]", "result": "no significant effect"}]}, {"molecule": "B1", "values": [{"measurement": "delay of onset of axotomy-induced RGC death", "setting": "[4]", "result": "approximately 3 days"}, {"measurement": "effect on survival of RGCs after axotomy", "setting": "[4]", "result": "neuroprotective effect"}]}, {"molecule": "B2", "values": [{"measurement": "effect on survival of RGCs after axotomy", "setting": "[4]", "result": "did not modify the survival of RGCs"}]}, {"molecule": "B3", "values": [{"measurement": "delay of onset of axotomy-induced RGC death", "setting": "[4]", "result": "approximately 3 days"}, {"measurement": "effect on survival of RGCs after axotomy", "setting": "[4]", "result": "neuroprotective effect"}]}]}
